What was measured:
[1] = target: T1, human XIAP protein (residues 120-356) (Homo sapiens, UniProt P98170); test: Fluorescence-polarization-based binding assay to XIAP protein (Smac2-F tracer); details: read-out: Binding to XIAP IC50 values
T1 construct: human XIAP protein (residues 120-356) (10 nM)
Method: The polarization values were measured after 2 hours incubation, using the Ultra plate reader. […] Curve fitting is performed using GraphPad Prism® software.

[2] = test system: MDA-MB-231 human breast cancer cell line; test: Cell growth inhibition, WST-8 assay, MDA-MB-231; format: cell-based; details: MDA-MB-231, read-out: IC50 values (nM) In WST-assay (MDA-MB-231)
Method: (§1) The rate of cell growth inhibition after treatment with different concentrations of the compound was determined using a WST-8 kit (2-(2-methoxy-4-nitrophenyl)-3-(4-nitrophenyl)-5-(2, 4 disulfophenyl)-2H-tetrazolium monosodium salt; Dojindo Molecular Technologies, Inc., Gaithersburg, Md.). WST-8 was added at a final concentration of 10% to each well, and then the plates were incubated at 37° C. for 2-3 hrs. The absorbance of the samples was measured at 450 nm using a ULTRA Tecan Reader (Molecular Device).

SK-OV-3 = test: Cell growth inhibition, WST assay, SK-OV-3; format: cell-based; details: Homo sapiens
Method: as §1, with “Cells were seeded in 96-well flat bottom cell culture plates at a density of 3000 cells/well with a tested compound and incubated at 37° C. in an atmosphere of 95% air and 5% CO2 for 4 days. The rate” for “The rate”

T1 sequence (P98170 120-356): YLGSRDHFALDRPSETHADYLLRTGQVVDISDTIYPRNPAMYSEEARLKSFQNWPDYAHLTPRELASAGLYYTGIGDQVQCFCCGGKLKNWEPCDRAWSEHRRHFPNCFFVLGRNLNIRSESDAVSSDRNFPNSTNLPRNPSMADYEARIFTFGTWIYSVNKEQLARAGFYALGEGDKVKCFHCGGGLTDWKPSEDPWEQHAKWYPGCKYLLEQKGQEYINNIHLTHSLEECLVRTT

Compound	IC50 [1]	IC50 [2]	IC50 (SK-OV-3)
CN[C@@H](C)C(=O)N[C@H]1CC[C@H](n2cc(COCc3cn([C@H]4CC[C@H](NC(=O)[C@H](C)NC)C(=O)N5[C@H](CC[C@H]5C(=O)N[C@@H]5CCCc6ccccc65)C4)nn3)nn2)C[C@H]2CC[C@@H](C(=O)N[C@@H]3CCCc4ccccc43)N2C1=O (stereo in doubt) [SH-172]	< 10 nM	< 1000 nM	
CN[C@@H](C)C(=O)N[C@H]1CCCC[C@H]2CC[C@@H](C(=O)N[C@H](COCCn3cc(COC[C@@H](NC(=O)[C@@H]4CC[C@@H]5CCCC[C@H](NC(=O)[C@H](C)NC)C(=O)N54)c4ccccc4)nn3)c3ccccc3)N2C1=O [SH-143]	< 50 nM		
CN[C@@H](C)C(=O)N[C@H]1CCCC[C@H]2CC[C@@H](C(=O)N[C@H](COCc3cn([C@@H]4CC[C@H](NC(=O)[C@H](C)NC)C(=O)N5[C@H](CC[C@H]5C(=O)N[C@@H]5CCCc6ccccc65)C4)nn3)c3ccccc3)N2C1=O [SH-146]	< 50 nM		
CN[C@@H](C)C(=O)N[C@H]1CC[C@@H](n2cc(COCc3cn([C@@H]4CC[C@H](NC(=O)[C@H](C)NC)C(=O)N5[C@H](CC[C@H]5C(=O)N[C@H]5CCCc6ccccc65)C4)nn3)nn2)C[C@H]2CC[C@@H](C(=O)NC3CCCc4ccccc43)N2C1=O (stereo partly shown) [SH-153]	< 10 nM	< 1000 nM	
CN[C@@H](C)C(=O)N[C@H]1CCCC[C@H]2CC[C@@H](C(=O)N[C@@H](c3ccccc3)c3cn(CCCCCCCCn4cc([C@@H](NC(=O)[C@@H]5CC[C@@H]6CCCC[C@H](NC(=O)[C@H](C)NC)C(=O)N65)c5ccccc5)nn4)nn3)N2C1=O [SH-167]		< 10 nM	< 10 nM
CN[C@@H](C)C(=O)N[C@H]1CC[C@H](n2cc(COCc3cn([C@H]4CC[C@H](NC(=O)[C@H](C)NC)C(=O)N5[C@H](CC[C@H]5C(=O)NC(c5ccccc5)c5ccccc5)C4)nn3)nn2)C[C@H]2CC[C@@H](C(=O)NC(c3ccccc3)c3ccccc3)N2C1=O [SH-176]	< 10 nM	< 100 nM	
CN[C@@H](C)C(=O)N[C@H]1CC[C@@H](n2cc(COCc3cn([C@@H]4CC[C@H](NC(=O)[C@H](C)NC)C(=O)N5[C@H](CC[C@H]5C(=O)NC(c5ccccc5)c5ccccc5)C4)nn3)nn2)C[C@H]2CC[C@@H](C(=O)NC(c3ccccc3)c3ccccc3)N2C1=O [SH-177]	< 10 nM	< 100 nM	
C[C@H](NCCO)C(=O)N[C@H]1CCCC[C@H]2CC[C@@H](C(=O)N[C@@H](c3ccccc3)c3cn(CCN4CCN(CCn5cc([C@@H](NC(=O)[C@@H]6CC[C@@H]7CCCC[C@H](NC(=O)[C@H](C)NCCO)C(=O)N76)c6ccccc6)nn5)CC4)nn3)N2C1=O [SH-179]	< 100 nM	< 10000 nM	
CN[C@@H](C)C(=O)N[C@H]1CCCC[C@H]2CC[C@@H](C(=O)N[C@@H](c3ccc(F)cc3)c3cn(CCN4CCN(CCn5cc([C@@H](NC(=O)[C@@H]6CC[C@@H]7CCCC[C@H](NC(=O)[C@H](C)NC)C(=O)N76)c6ccc(F)cc6)nn5)CC4)nn3)N2C1=O [SH-181]	< 100 nM	< 10000 nM	
C[C@H](NCCO)C(=O)N[C@H]1CCCC[C@H]2CC[C@@H](C(=O)N[C@@H](c3ccc(F)cc3)c3cn(CCN4CCN(CCn5cc([C@@H](NC(=O)[C@@H]6CC[C@@H]7CCCC[C@H](NC(=O)[C@H](C)NCCO)C(=O)N76)c6ccc(F)cc6)nn5)CC4)nn3)N2C1=O [SH-183]	< 100 nM	< 10000 nM	
CNC(Cc1c[nH]c2ccccc12)C(=O)NC1CCCCC2CCC(C(=O)NC(c3ccccc3)c3cn(CCCCc4ccc(CCCCn5cc(C(NC(=O)C6CCC7CCCCC(NC(=O)C(Cc8c[nH]c9ccccc89)NC)C(=O)N76)c6ccccc6)nn5)cc4)nn3)N2C1=O (stereo not shown) [SH-187]	> 10000 nM		
CN[C@@H](C)C(=O)N[C@H]1CCCC[C@H]2CC[C@@H](C(=O)N[C@@H](c3ccccc3)c3ccc(CCCNC(=S)NCCCc4ccc([C@@H](NC(=O)[C@@H]5CC[C@@H]6CCCC[C@H](NC(=O)[C@@H](C)NC)C(=O)N65)c5ccccc5)cc4)cc3)N2C1=O [SH-189]	< 100 nM	< 100 nM	< 100 nM
CN[C@@H](C)C(=O)N[C@H]1CN(Cc2ccc(CN3CC[C@H]4CC[C@@H](C(=O)NC(c5ccccc5)c5ccccc5)N4C(=O)[C@@H](NC(=O)[C@H](C)NC)C3)cc2)CC[C@H]2CC[C@@H](C(=O)NC(c3ccccc3)c3ccccc3)N2C1=O [YP-317]	< 100 nM	< 100 nM	
CN[C@@H](C)C(=O)N[C@H]1CN(C(=O)CCCCCCCCC(=O)N2CC[C@H]3CCC(C(=O)NC(c4ccccc4)c4ccccc4)N3C(=O)[C@@H](NC(=O)[C@H](C)NC)C2)CC[C@H]2CCC(C(=O)NC(c3ccccc3)c3ccccc3)N2C1=O (stereo partly shown) [YP-381]		< 10 nM	< 10 nM
CN[C@@H](C)C(=O)N[C@H]1CN(C(=O)CCCCCCCCCCC(=O)N2CC[C@H]3CC[C@@H](C(=O)NC(c4ccccc4)c4ccccc4)N3C(=O)[C@@H](NC(=O)[C@H](C)NC)C2)CC[C@H]2CC[C@@H](C(=O)NC(c3ccccc3)c3ccccc3)N2C1=O [YP-383]		< 10 nM	< 10 nM
CN[C@@H](C)C(=O)N[C@H]1CN(C(=O)CCCCCCC(=O)N2CC[C@H]3CCC(C(=O)NC(c4ccccc4)c4ccccc4)N3C(=O)[C@@H](NC(=O)[C@H](C)NC)C2)CC[C@H]2CCC(C(=O)NC(c3ccccc3)c3ccccc3)N2C1=O (stereo partly shown) [YP-385]		< 10 nM	< 10 nM

Further lines, results first:

IC50 [1]	IC50 [2]	IC50 (SK-OV-3)	Compound
< 10 nM	< 100 nM	< 100 nM	CN[C@@H](C)C(=O)N[C@H]1CCCC[C@H]2CC[C@@H](C(=O)N[C@@H](c3ccccc3)c3ccc(CCCn4cc(COCc5cn(CCCc6ccc([C@@H](NC(=O)[C@@H]7CC[C@@H]8CCCC[C@H](NC(=O)[C@H](C)NC)C(=O)N87)c7ccccc7)cc6)nn5)nn4)cc3)N2C1=O [SH-155]
< 10 nM	< 1000 nM	< 1000 nM	CN[C@@H](C)C(=O)N[C@H]1CCCC[C@H]2CC[C@@H](C(=O)N[C@@H](c3ccccc3)c3cn(CCOCCOCCn4cc([C@@H](NC(=O)[C@@H]5CC[C@@H]6CCCC[C@H](NC(=O)[C@H](C)NC)C(=O)N65)c5ccccc5)nn4)nn3)N2C1=O [SH-158]
< 10 nM	< 1000 nM	< 1000 nM	CN[C@@H](C)C(=O)N[C@H]1CCCC[C@H]2CC[C@@H](C(=O)N[C@@H](c3ccccc3)c3cn(CCOCCn4cc([C@@H](NC(=O)[C@@H]5CC[C@@H]6CCCC[C@H](NC(=O)[C@H](C)NC)C(=O)N65)c5ccccc5)nn4)nn3)N2C1=O [SH-159]
< 10 nM	< 1000 nM	< 1000 nM	CN[C@@H](C)C(=O)N[C@H]1CCCC[C@H]2CC[C@@H](C(=O)N[C@@H](c3ccccc3)c3cn(CCCCn4cc([C@@H](NC(=O)[C@@H]5CC[C@@H]6CCCC[C@H](NC(=O)[C@H](C)NC)C(=O)N65)c5ccccc5)nn4)nn3)N2C1=O [SH-166]
< 100 nM	< 10000 nM		CN[C@@H](C)C(=O)N[C@H]1CCCC[C@H]2CC[C@@H](C(=O)N[C@@H](c3ccccc3)c3cn(CCN4CCN(CCn5cc([C@@H](NC(=O)[C@@H]6CC[C@@H]7CCCC[C@H](NC(=O)[C@H](C)NC)C(=O)N76)c6ccccc6)nn5)CC4)nn3)N2C1=O [SH-178]
< 100 nM	< 1000 nM	< 1000 nM	C[C@H](NCCO)C(=O)N[C@H]1CCCC[C@H]2CC[C@@H](C(=O)N[C@@H](c3ccccc3)c3cn(CCCCc4ccc(CCCCn5cc([C@@H](NC(=O)[C@@H]6CC[C@@H]7CCCC[C@H](NC(=O)[C@H](C)NCCO)C(=O)N76)c6ccccc6)nn5)cc4)nn3)N2C1=O [SH-180]
< 100 nM	< 10 nM	< 10 nM	CN[C@@H](C)C(=O)N[C@H]1CCCC[C@H]2CC[C@@H](C(=O)N[C@@H](c3ccc(F)cc3)c3cn(CCCCc4ccc(CCCCn5cc([C@@H](NC(=O)[C@@H]6CC[C@@H]7CCCC[C@H](NC(=O)[C@H](C)NC)C(=O)N76)c6ccc(F)cc6)nn5)cc4)nn3)N2C1=O [SH-182]
< 100 nM	< 10 nM	< 100 nM	C[C@H](NCCO)C(=O)N[C@H]1CCCC[C@H]2CC[C@@H](C(=O)N[C@@H](c3ccc(F)cc3)c3cn(CCCCc4ccc(CCCCn5cc([C@@H](NC(=O)[C@@H]6CC[C@@H]7CCCC[C@H](NC(=O)[C@H](C)NCCO)C(=O)N76)c6ccc(F)cc6)nn5)cc4)nn3)N2C1=O [SH-184]
< 100 nM	< 100 nM	< 100 nM	CN[C@@H](C)C(=O)N[C@H]1CCCC[C@H]2CC[C@@H](C(=O)N[C@@H](c3ccccc3)c3ccc(CCCNC(=O)NCCCc4ccc([C@@H](NC(=O)[C@@H]5CC[C@@H]6CCCC[C@H](NC(=O)[C@@H](C)NC)C(=O)N65)c5ccccc5)cc4)cc3)N2C1=O [SH-188]
< 100 nM	< 10 nM	< 10 nM	CN[C@@H](C)C(=O)N[C@H]1CCCC[C@H]2CC[C@@H](C(=O)N[C@@H](c3ccccc3)c3ccc(CCCCNC(=O)NCCCCc4ccc([C@@H](NC(=O)[C@@H]5CC[C@@H]6CCCC[C@H](NC(=O)[C@H](C)NC)C(=O)N65)c5ccccc5)cc4)cc3)N2C1=O [SH-190]
	< 1000 nM	< 1000 nM	CN[C@@H](C)C(=O)N[C@H]1CCCC[C@H]2CC[C@@H](C(=O)N[C@H](c3ccccc3)c3cn(CCCCc4ccc(CCCCn5cc([C@H](NC(=O)[C@@H]6CC[C@@H]7CCCC[C@H](NC(=O)[C@H](C)NC)C(=O)N76)c6ccccc6)nn5)cc4)nn3)N2C1=O [SH-206]

Reference: patent US8202902B2, “Bivalent SMAC mimetics and the uses thereof” (The Regents of the University of Michigan, priority 2006, dated 2012)
